In patent US20170119776A1, “CHIRAL 2,5-DISUBSTITUTED CYCLOPENTANECARBOXYLIC ACID DERIVATIVES AND USE THEREOF” (BAYER PHARMA AKTIENGESELLSCHAFT, priority 2014, published 2017):

Tests used:
Format in all cases: biochemical
MMP-2 of the mouse = target: T1, MMP-2 of the mouse (Mus musculus, UniProt P33434); experiment: In vitro MMP-2 inhibition test of the mouse
T1 construct: purchased R&D Systems 924-MP
From the text: (§1) The activity strength of the compounds according to the invention towards other MMPs (and therefore their selectivity) is likewise ascertained in in vitro inhibition tests. The MMP-mediated amidolytic cleavage of a suitable peptide substrate also leads here to a fluorescent light increase. The signal intensity of the fluorescent light is directly proportional to the enzyme activity. The active concentration of a test compound at which half of the enzyme is inhibited (50% signal intensity of the fluorescent light) is given as IC50 value.
(§2) Recombinant MMP-2 of the mouse (R&D Systems, 924-MP) is chemically activated in accordance with the manufacturer's instructions using APMA. 1 μl of the test compound to be analysed (as a solution in DMSO, suitable concentrations e.g. 1 nM to 30 μM) is pipetted into 24 μl of activated enzyme (final concentration e.g. 0.1 nM) in reaction buffer (50 mM Tris/HCl pH 7.5, 10 mM CaCl2, 150 mM NaCl, 0.05% Brij®-35) in a white 384-hole microtiter plate (MTP). The enzymatic reaction is started by adding the intramolecularly quenched substrate Mca-Pro-Leu-Gly-Leu-Dpa(Dnp)-Ala-Arg-NH2 (final concentration e.g. 10 μM; R&D Systems, ES-001), such that a total test volume of 50 μl results. The progress of the MMP-2 reaction is measured by measuring the fluorescence intensity (excitation 320 nm, emission 410 nm) over a suitable period (e.g. over 120 min at a temperature of 32° C.).
(§3) Tables 3A and 3B below give the IC50 values from these tests for the inhibition of rodent MMPs for representative embodiment examples of the present invention and also for two structurally related comparison compounds from the prior art (as racemate and separated enantiomer)→(in part as average values from several independent individual determinations and rounded to two significant places). The IC50 values were determined for racemates and enantiomers from differently generated DMSO stock solutions. Whereas an automatically created DMSO stock solution from the internal substance logistics was used for racemates by means of a standard method, in the case of enantiomers, in each case a freshly produced, manually prepared DMSO stock solution was used for a more precise direct comparison of the enantiomers with one another.

MMP-8 of the mouse = target: T2, MMP-8 of the mouse (Mus musculus, UniProt O70138); experiment: In vitro MMP-8 inhibition test of the mouse
T2 construct: purchased R&D Systems 2904-MP
T2 sequence (O70138 101-465): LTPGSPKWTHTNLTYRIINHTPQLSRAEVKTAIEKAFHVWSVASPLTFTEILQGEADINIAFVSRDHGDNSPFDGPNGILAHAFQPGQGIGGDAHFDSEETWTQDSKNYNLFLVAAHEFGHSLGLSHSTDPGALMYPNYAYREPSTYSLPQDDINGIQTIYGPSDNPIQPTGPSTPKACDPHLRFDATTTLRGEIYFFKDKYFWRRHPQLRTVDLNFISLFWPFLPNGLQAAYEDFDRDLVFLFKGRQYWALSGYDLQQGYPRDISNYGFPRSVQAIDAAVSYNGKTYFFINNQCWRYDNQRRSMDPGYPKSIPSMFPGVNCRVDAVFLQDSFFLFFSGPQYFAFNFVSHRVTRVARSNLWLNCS
From the text: as §1
Recombinant MMP-8 of the mouse (R&D Systems, 2904-MP) is chemically activated in accordance with the manufacturer's instructions using APMA. 1 μl of the test compound to be analysed (as a solution in DMSO, suitable concentrations e.g. 1 nM to 30 μM) is pipetted into 24 μl of activated enzyme (final concentration e.g. 2 nM) in reaction buffer (50 mM Tris/HCl pH 7.5, 10 mM CaCl2, 150 mM NaCl, 0.05% Brij®-35) in a white 384-hole microtiter plate (MTP). The enzymatic reaction is started by adding the intramolecularly quenched substrate Mca-Lys-Pro-Leu-Gly-Leu-Dpa(Dnp)-Ala-Arg-NH2 (final concentration e.g. 5 μM; R&D Systems, ES-010), such that a total test volume of 50 μl results. The progress of the MMP-8 reaction is measured by measuring the fluorescence intensity (excitation 320 nm, emission 410 nm) over a suitable period (e.g. over 120 min at a temperature of 32° C.).
as §3

MMP-2 = target: T3, MMP-2 (Homo sapiens, UniProt P08253); experiment: In vitro MMP-2 inhibition test
T3 construct: purchased R&D Systems 902-MP
T3 sequence (P08253 110-660): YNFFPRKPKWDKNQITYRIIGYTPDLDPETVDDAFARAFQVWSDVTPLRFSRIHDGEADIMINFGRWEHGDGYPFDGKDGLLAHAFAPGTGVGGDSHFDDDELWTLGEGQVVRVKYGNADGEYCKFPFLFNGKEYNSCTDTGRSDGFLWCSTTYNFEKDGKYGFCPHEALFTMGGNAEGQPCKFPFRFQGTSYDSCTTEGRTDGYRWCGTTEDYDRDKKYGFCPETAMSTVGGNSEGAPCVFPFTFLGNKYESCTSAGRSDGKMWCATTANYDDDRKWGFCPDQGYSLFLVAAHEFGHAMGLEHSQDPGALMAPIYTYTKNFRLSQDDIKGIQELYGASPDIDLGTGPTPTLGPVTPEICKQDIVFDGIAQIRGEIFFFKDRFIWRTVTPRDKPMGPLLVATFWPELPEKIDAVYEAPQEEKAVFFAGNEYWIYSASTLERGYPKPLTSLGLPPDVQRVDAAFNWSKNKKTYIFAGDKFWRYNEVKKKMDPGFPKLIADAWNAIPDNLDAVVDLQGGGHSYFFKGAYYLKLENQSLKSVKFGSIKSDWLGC
From the text: as §1
as §2, with “MMP-2” for “MMP-2 of the mouse”, “902-MP)” for “924-MP)”, “2” for “0.1”
The IC50 values were determined for racemates and enantiomers from differently generated DMSO stock solutions. Whereas an automatically produced DMSO stock solution from the internal substance logistics was used for racemates by means of a standard method, in the case of enantiomers a freshly produced, manually prepared DMSO stock solution was used in each case for a more precise direct comparison of the enantiomers with one another.

T1 sequence (P33434 110-662): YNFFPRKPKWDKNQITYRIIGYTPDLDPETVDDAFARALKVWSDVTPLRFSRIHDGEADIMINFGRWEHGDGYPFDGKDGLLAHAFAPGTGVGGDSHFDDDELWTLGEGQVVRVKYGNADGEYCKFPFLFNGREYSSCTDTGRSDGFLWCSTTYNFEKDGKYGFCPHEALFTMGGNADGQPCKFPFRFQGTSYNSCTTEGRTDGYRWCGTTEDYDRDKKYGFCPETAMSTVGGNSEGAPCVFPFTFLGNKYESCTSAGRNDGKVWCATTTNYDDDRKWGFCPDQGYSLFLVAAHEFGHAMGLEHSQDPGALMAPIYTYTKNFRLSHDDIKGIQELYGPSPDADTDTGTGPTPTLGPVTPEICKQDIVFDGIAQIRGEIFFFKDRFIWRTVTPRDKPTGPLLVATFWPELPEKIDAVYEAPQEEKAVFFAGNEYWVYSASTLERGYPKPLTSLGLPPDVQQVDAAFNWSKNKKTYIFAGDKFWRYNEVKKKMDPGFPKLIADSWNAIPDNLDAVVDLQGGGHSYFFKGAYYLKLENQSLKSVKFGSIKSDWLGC

Row | SMILES | IC50 (MMP-2 of the mouse) [nM] | IC50 (MMP-8 of the mouse) [nM] | IC50 (MMP-2) [nM]
1 | CCCCCOc1ccc(C(=O)CC(CCn2nnc3ccccc3c2=O)C(=O)O)cc1 (single isomer, unassigned; enantiomer 1) [Comparative Example B-2, (+)-4-Oxo-2-[2-(4-oxo-1,2,3-benzotriazin-3(4H)-yl)ethyl]-4-[4-(pentyloxy)phenyl]butanoic acid (enantiomer 1)] | 145 | 1080 | 120
2 | O=C(O)[C@@H]1[C@@H](Cn2nnc3ccccc3c2=O)CC[C@H]1C(=O)c1ccc(-c2ccc(Cl)cc2)cc1 (single isomer, unassigned; enantiomer 2) [Comparative Example A-3, (1RS,2RS,5SR)-2-[(4′-Chlorobiphenyl-4-yl)carbonyl]-5-[(4-oxo-1,2,3-benzotriazin-3(4H)-yl)methyl]cyclopentanecarboxylic acid (enantiomer 2)] | < 0.61 | < 0.61 | 0.7
3 | CCCCCOc1ccc(C(=O)CC(CCn2nnc3ccccc3c2=O)C(=O)O)cc1 (racemic) [Comparative Example B-1, (+/−)-4-Oxo-2-[2-(4-oxo-1,2,3-benzotriazin-3(4H)-yl)ethyl]-4-[4-(pentyloxy)phenyl]butanoic acid (racemate)] | 610 | 2300 | 450
4 | O=C(O)[C@H]1[C@H](Cn2nnc3ccccc3c2=O)CC[C@@H]1C(=O)c1ccc(-c2ccc(Cl)cc2)cc1 (racemic) [Comparative Example A-1, (1RS,2RS,5SR)-2-[(4′-chlorobiphenyl-4-yl)carbonyl]-5-[(4-oxo-1,2,3-benzotriazin-3(4H)-yl)methyl]cyclopentanecarboxylic acid (racemate)] | 1.3 | 1.1 | 1.1

The remaining molecules from weak to strong by IC50 (MMP-2 of the mouse), led by results:

Row | IC50 (MMP-2 of the mouse) [nM] | IC50 (MMP-8 of the mouse) [nM] | IC50 (MMP-2) [nM] | SMILES
5 | 33 | 71 | 18 | O=C(O)[C@H]1[C@H](Cn2nnc3ccccc3c2=O)CC[C@@H]1C(=O)c1ccc(OCc2ccccc2)cc1 (racemic) [Example 1, (+/−)-(1RS,2RS,5SR)-2-[4-(Benzyloxy)benzoyl]-5-[(4-oxo-1,2,3-benzotriazin-3(4H)-yl)methyl]cyclopentanecarboxylic acid (racemate)]
6 | 16.5 | 34.5 | 11.8 | O=C(O)[C@H]1[C@H](Cn2nnc3ccccc3c2=O)CC[C@@H]1C(=O)c1ccc(OCc2ccccc2)cc1 [Example 2, (+)-(1S,2S,5R)-2-[4-(Benzyloxy)benzoyl]-5-[(4-oxo-1,2,3-benzotriazin-3(4H)-yl)methyl]cyclopentanecarboxylic acid]
